These results are taken from patent US20070021434A1, “NON-NUCLEOSIDE ANTI-HEPACIVIRUS AGENTS AND USES THEREOF” (Migenix Inc., priority 2005, published 2007).

For one test, the target named is HCV RdRp (NS5B) (UniProt P26663).
HCV RdRp (NS5B), sequence (P26663 whole entry, looked up): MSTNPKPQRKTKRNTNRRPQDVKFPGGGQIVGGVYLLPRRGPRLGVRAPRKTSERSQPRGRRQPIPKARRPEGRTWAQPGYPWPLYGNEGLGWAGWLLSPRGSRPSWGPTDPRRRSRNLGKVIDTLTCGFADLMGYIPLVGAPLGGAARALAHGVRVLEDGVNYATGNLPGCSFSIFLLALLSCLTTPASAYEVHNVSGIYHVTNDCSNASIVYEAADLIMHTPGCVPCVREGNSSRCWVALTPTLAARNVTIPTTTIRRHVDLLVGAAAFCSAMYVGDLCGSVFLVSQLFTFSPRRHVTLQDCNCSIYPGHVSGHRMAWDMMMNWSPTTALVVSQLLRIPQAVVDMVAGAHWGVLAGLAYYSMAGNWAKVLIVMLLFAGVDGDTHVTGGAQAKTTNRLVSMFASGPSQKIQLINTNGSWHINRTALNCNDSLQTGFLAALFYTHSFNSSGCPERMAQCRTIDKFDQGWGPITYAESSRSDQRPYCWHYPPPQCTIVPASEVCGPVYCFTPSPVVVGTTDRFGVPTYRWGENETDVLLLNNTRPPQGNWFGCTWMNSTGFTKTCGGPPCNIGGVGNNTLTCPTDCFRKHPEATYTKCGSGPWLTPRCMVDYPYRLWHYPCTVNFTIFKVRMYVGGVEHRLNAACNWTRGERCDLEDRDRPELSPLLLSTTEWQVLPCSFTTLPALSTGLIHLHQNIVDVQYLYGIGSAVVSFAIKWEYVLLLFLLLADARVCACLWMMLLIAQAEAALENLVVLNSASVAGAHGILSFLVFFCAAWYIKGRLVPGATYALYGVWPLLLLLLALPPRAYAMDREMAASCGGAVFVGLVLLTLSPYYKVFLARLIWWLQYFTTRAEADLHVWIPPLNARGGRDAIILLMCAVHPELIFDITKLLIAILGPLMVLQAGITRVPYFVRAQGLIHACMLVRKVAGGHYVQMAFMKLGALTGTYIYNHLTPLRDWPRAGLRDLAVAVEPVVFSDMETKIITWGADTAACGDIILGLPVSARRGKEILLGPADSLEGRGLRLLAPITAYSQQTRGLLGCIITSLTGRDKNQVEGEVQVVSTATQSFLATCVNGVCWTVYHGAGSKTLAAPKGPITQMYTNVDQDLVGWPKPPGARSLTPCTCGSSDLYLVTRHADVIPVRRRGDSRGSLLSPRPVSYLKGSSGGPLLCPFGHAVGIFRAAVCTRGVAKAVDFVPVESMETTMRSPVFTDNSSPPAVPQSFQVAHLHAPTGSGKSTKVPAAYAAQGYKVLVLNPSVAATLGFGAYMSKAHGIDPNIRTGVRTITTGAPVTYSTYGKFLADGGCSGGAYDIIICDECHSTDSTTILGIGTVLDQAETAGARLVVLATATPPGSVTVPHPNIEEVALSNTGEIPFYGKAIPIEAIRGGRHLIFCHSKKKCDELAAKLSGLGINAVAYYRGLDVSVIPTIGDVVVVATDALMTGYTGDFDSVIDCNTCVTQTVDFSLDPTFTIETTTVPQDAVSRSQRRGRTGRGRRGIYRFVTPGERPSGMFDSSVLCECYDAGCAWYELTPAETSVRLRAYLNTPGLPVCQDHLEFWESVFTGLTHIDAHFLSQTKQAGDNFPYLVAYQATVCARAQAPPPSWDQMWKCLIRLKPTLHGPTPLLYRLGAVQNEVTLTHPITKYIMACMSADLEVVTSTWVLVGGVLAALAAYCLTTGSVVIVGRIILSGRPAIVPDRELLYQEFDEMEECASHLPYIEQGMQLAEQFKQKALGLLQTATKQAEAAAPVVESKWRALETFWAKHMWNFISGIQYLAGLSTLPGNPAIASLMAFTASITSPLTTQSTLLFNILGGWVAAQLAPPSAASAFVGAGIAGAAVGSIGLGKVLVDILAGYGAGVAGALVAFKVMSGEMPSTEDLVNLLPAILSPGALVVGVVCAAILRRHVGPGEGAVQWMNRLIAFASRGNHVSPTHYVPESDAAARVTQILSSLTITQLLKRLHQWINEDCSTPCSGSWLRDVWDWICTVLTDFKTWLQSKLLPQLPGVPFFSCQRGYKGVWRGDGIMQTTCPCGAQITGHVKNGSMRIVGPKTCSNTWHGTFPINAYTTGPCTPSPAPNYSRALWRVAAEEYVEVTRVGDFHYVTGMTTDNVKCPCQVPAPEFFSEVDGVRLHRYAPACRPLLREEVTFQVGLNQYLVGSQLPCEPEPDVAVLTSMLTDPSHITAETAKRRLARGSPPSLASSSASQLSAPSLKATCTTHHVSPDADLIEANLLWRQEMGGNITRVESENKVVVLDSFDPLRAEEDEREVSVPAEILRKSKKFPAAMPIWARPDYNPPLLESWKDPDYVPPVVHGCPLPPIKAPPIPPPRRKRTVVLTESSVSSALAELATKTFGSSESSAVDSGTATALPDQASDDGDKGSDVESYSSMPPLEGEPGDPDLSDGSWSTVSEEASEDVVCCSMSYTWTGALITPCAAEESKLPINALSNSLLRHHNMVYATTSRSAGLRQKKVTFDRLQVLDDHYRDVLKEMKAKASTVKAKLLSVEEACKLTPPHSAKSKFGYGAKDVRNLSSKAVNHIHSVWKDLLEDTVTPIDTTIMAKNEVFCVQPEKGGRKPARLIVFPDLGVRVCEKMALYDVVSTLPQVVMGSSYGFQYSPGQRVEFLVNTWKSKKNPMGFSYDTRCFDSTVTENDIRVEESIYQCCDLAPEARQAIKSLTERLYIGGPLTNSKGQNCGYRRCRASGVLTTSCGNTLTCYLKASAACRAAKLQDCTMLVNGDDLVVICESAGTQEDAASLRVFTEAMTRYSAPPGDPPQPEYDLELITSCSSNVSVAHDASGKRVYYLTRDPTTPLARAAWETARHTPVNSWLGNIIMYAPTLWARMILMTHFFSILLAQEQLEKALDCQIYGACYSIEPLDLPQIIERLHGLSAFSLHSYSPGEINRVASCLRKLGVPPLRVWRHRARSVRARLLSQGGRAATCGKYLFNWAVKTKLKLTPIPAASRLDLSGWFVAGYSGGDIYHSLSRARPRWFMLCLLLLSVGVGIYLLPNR
Experiment: not given
Type of test: biochemical, hepatitis C virus.
Conditions: not given
Regarding `NCCCC[C@H](NC(=O)Nc1ccc(-c2ccccc2)cc1)C(=O)Nc1ccc(CN(C(=O)c2ccco2)C2CCCCC2)cc1` [Compound 26, (S)-FURAN-2-CARBOXYLIC ACID {4-[6-AMINO-2-(3-BIPHENYL-4-YL-UREIDO)-HEXANOYLAMINO]-BENZYL}-CYCLOHEXYL-AMIDE], the IC50 is less than 10 µM.

For the compound `Cc1ccc(NC(=O)C(CC(=O)O)NC(=O)OCC2c3ccccc3-c3ccccc32)cc1` [Compound 370, (S)-3-(9H-FLUOREN-9-YLMETHOXYCARBONYLAMINO)-NR-P-TOLYL-[…]], the IC50 was more than 50 µM.

Turning to `Cc1ccc(NC(=O)C(CC(=O)O)NC(=O)OCC2c3ccccc3-c3ccccc32)cc1` [Compound 371, (R)-3-(9H-FLUOREN-9-YLMETHOXYCARBONYLAMINO)-NR-P-TOLYL-[…]], the IC50 is more than 50 µM.

The compound `Cc1ccc(NC(=O)C(CCC(=O)O)NC(=O)OCC2c3ccccc3-c3ccccc32)cc1` [Compound 372, (S)-4-(9H-FLUOREN-9-YLMETHOXYCARBONYLAMINO)-4-P-TOLYLCARBAMOYL-BUTYRIC ACID] yielded an IC50 of more than 50 µM.

As for `Cc1ccc(NC(=O)C(CCC(=O)O)NC(=O)OCC2c3ccccc3-c3ccccc32)cc1` [Compound 373, (R)-4-(9H-FLUOREN-9-YLMETHOXYCARBONYLAMINO)-4-P-TOLYLCARBAMOYL-BUTYRIC ACID], the half-inhibitory concentration (IC50) is more than 50 µM.

The compound `Cc1ccc(NC(=O)C(CCO)NC(=O)OCC2c3ccccc3-c3ccccc32)cc1` [Compound 374, (S)-(3-HYDROXY-1-P-TOLYLCARBAMOYL-PROPYL)-CARBAMIC ACID 9H-FLUOREN-9-YLMETHYL ESTER] registered an IC50 of more than 50 µM.

`Cc1ccc(NC(=O)C(CO)NC(=O)OCC2c3ccccc3-c3ccccc32)cc1` [Compound 375, (R)-(2-HYDROXY-1-P-TOLYLCARBAMOYL-ETHYL)-CARBAMIC ACID 9H-FLUOREN-9-YLMETHYL ESTER] displayed an IC50 of more than 50 µM.

`Cc1ccc(NC(=O)C(NC(=O)OCC2c3ccccc3-c3ccccc32)C(C)O)cc1` [Compound 376, (2+/−,3S)-(2-HYDROXY-1-P-TOLYLCARBAMOYL-PROPYL)-CARBAMIC ACID 9H-FLUOREN-9-YLMETHYL ESTER] displayed a half-maximal inhibitory concentration (IC50) of more than 50 µM.

Compound `Cc1ccc(NC(=O)C(NC(=O)OCC2c3ccccc3-c3ccccc32)C(C)O)cc1` [Compound 377, (2+/−,3R)-(2-HYDROXY-1-P-TOLYLCARBAMOYL-PROPYL)-CARBAMIC ACID 9H-FLUOREN-9-YLMETHYL ESTER] returned an IC50 of more than 50 µM.

Consider `Cc1ccc(NC(=O)C(Cc2c[nH]c3ccccc23)NC(=O)OCC2c3ccccc3-c3ccccc32)cc1` [Compound 378, (S)-[2-(1H-INDOL-3-YL)-1-P-TOLYLCARBAMOYL-ETHYL]-CARBAMIC ACID 9H-FLUOREN-9-YLMETHYL ESTER], for which the IC50 is more than 50 µM.

In turn, `Cc1ccc(NC(=O)C(Cc2c[nH]c3ccccc23)NC(=O)OCC2c3ccccc3-c3ccccc32)cc1` [Compound 379, (R)-[2-(1H-INDOL-3-YL)-1-P-TOLYLCARBAMOYL-ETHYL]-CARBAMIC ACID 9H-FLUOREN-9-YLMETHYL ESTER] displayed an IC50 of more than 50 µM.

Compound `Cc1ccc(NC(=O)C(Cc2ccc(O)cc2)NC(=O)OCC2c3ccccc3-c3ccccc32)cc1` [Compound 380, (R)-[2-(4-HYDROXY-PHENYL)-1-P-TOLYLCARBAMOYL-ETHYL]-CARBAMIC ACID 9H-FLUOREN-9-YLMETHYL ESTER] came in with an IC50 of more than 50 µM.

With `Cc1ccc(NC(=O)C(Cc2cccs2)NC(=O)OCC2c3ccccc3-c3ccccc32)cc1` [Compound 381, (S)-(2-THIOPHEN-2-YL-1-P-TOLYLCARBAMOYL-ETHYL)-CARBAMIC ACID 9H-FLUOREN-9-YLMETHYL ESTER], the IC50 is more than 50 µM.

In turn, `Cc1ccc(NC(=O)C(CCC(N)=O)NC(=O)OCC2c3ccccc3-c3ccccc32)cc1` [Compound 382, (R)-(3-CARBAMOYL-1-P-TOLYLCARBAMOYL-PROPYL)-CARBAMIC ACID 9H-FLUOREN-9-YLMETHYL ESTER] displayed an IC50 of more than 50 µM.

Regarding `CSCCC(NC(=O)OCC1c2ccccc2-c2ccccc21)C(=O)Nc1ccc(C)cc1` (stereo not shown) [Compound 383], the IC50 is more than 50 µM.

The compound `Cc1ccc(NC(=O)C(Cc2cnc[nH]2)NC(=O)OCC2c3ccccc3-c3ccccc32)cc1` [Compound 384, (R)-[2-(3H-IMIDAZOL-4-YL)-1-P-TOLYLCARBAMOYL-ETHYL]-CARBAMIC ACID 9H-FLUOREN-9-YLMETHYL ESTER] gave an IC50 of more than 50 µM.

Consider `Cc1ccc(NC(=O)C(Cc2cccnc2)NC(=O)OCC2c3ccccc3-c3ccccc32)cc1` [Compound 385, (S)-(2-PYRIDIN-3-YL-1-P-TOLYLCARBAMOYL-ETHYL)-CARBAMIC ACID 9H-FLUOREN-9-YLMETHYL ESTER], for which the half-maximal inhibitory concentration (IC50) was more than 50 µM.

As for `COc1ccc(S(=O)(=O)N[C@@H](CCCCN)C(=O)Nc2ccc(C)cc2)cc1OC` [Compound 386, (S)-6-AMINO-2-(3,4-DIMETHOXY-BENZENESULFONYLAMINO)-HEXANOIC ACID P-TOLYLAMIDE], the IC50 was more than 50 µM.

For `Cc1ccc(NC(=O)[C@H](CCCCN)NS(=O)(=O)c2ccccc2)cc1` [Compound 387, (S)-6-AMINO-2-BENZENESULFONYLAMINO-HEXANOIC ACID P-TOLYLAMIDE], the IC50 is more than 50 µM.

On to `Cc1ccc(NC(=O)C(CCCCN)NS(=O)(=O)c2cc(S(=O)(=O)c3ccccc3)cs2)cc1` [Compound 388, (S)-6-AMINO-2-(4-BENZENESULFONYL-THIOPHENE-2-SULFONYLAMINO)-HEXANOIC ACID P-TOLYLAMIDE], for which the IC50 is more than 50 µM.

Compound `Cc1ccc(NC(=O)C(CCCCN)NS(=O)(=O)c2ccc(S(=O)(=O)c3ccccc3)s2)cc1` [Compound 389, (S)-6-AMINO-2-(5-BENZENESULFONYL-THIOPHENE-2-SULFONYLAMINO)-HEXANOIC ACID P-TOLYLAMIDE] displayed an IC50 of more than 50 µM.

Compound `CCCCOc1ccc(S(=O)(=O)N[C@@H](CCCCN)C(=O)Nc2ccc(C)cc2)cc1` [Compound 390, (S)-6-AMINO-2-(4-BUTOXY-BENZENESULFONYLAMINO)-HEXANOIC ACID P-TOLYLAMIDE] gave an IC50 of more than 50 µM.

In turn, `Cc1ccc(NC(=O)[C@H](CCCCN)NS(=O)(=O)c2ccc(Cl)cc2)cc1` [Compound 391, (S)-6-AMINO-2-(4-CHLORO-BENZENESULFONYLAMINO)-HEXANOIC ACID P-TOLYLAMIDE] came in with an IC50 of more than 50 µM.

As for `Cc1ccc(NC(=O)[C@H](CCCCN)NS(=O)(=O)c2ccc(Cl)c(Cl)c2)cc1` [Compound 392, (S)-6-AMINO-2-(3,4-DICHLORO-BENZENESULFONYLAMINO)-HEXANOIC ACID P-TOLYLAMIDIE], the IC50 was more than 50 µM.

In turn, `Cc1ccc(NC(=O)[C@H](CCCCN)NS(=O)(=O)c2ccc(Cl)cc2Cl)cc1` [Compound 393, (S)-6-AMINO-2-(2,4-DICHLORO-BENZENESULFONYLAMINO)-HEXANOIC ACID P-TOLYLAMIDE] yielded an IC50 of more than 50 µM.

Compound `Cc1ccc(NC(=O)[C@H](CCCCN)NS(=O)(=O)c2cc(Cl)cc(Cl)c2)cc1` [Compound 394, (S)-6-AMINO-2-(3,5-DICHLORO-BENZENESULFONYLAMINO)-HEXANOIC ACID P-TOLYLAMIDE] gave an IC50 of more than 50 µM.

Take `Cc1ccc(NC(=O)[C@H](CCCCN)NS(=O)(=O)c2cc(Cl)sc2Cl)cc1` [Compound 395, (S)-6-AMINO-2-(2,5-DICHLORO-THIOPHENE-3-SULFONYLAMINO)-HEXANOIC ACID P-TOLYLAMIDE]: the IC50 was more than 50 µM.

For `Cc1ccc(NC(=O)[C@H](CCCCN)NS(=O)(=O)c2ccc(C)cc2)cc1` [Compound 396, (S)-6-AMINO-2-(TOLUENE-4-SULFONYLAMINO)-HEXANOIC ACID P-TOLYLAMIDE], the IC50 is more than 50 µM.

For the compound `Cc1ccc(NC(=O)C(CCCCN)NS(=O)(=O)c2ccc(C(F)(F)F)cc2)cc1` [Compound 397, (S)-6-AMINO-2-(4-TRIFLUOROMETHYL-BENZENESULFONYLAMINO)-HEXANOIC ACID P-TOLYLAMIDE], the 50% inhibitory concentration (IC50) is more than 50 µM.

Consider `Cc1ccc(NC(=O)[C@H](CCCCN)NS(=O)(=O)c2cccc3nonc23)cc1` [Compound 398, (S)-6-AMINO-2-(BENZO[1,2,5]OXADIAZOLE-4-SULFONYLAMINO)-HEXANOIC ACID P-TOLYLAMIDE], for which the IC50 is more than 50 µM.

`Cc1ccc(NC(=O)[C@H](CCCCN)NS(=O)(=O)c2ccsc2)cc1` [Compound 399, (S)-6-AMINO-2-(THIOPHENE-3-SULFONYLAMINO)-HEXANOIC ACID P-TOLYLAMIDE] showed an IC50 of more than 50 µM.

Compound `Cc1ccc(NC(=O)C(CCN)NC(=O)OCC2c3ccccc3-c3ccccc32)cc1` [Compound 400, (R)-(3-AMINO-1-P-TOLYLCARBAMOYL-PROPYL)-CARBAMIC ACID 9H-FLUOREN-9-YLMETHYL ESTER] came in with an IC50 of more than 50 µM.

Consider `Cc1ccc(NC(=O)C(CN)NC(=O)OCC2c3ccccc3-c3ccccc32)cc1` [Compound 401, (R)-(2-AMINO-1-P-TOLYLCARBAMOYL-ETHYL)-CARBAMIC ACID 9H-FLUOREN-9-YLMETHYL ESTER], for which the IC50 was more than 50 µM.

Turning to `Cc1ccc(NC(=O)C(CCCC(=O)O)NC(=O)OCC2c3ccccc3-c3ccccc32)cc1` [Compound 402, (S)-5-(9H-FLUOREN-9-YLMETHOXYCARBONYLAMINO)-5-P-TOLYLCARBAMOYL-PENTANOIC ACID], the IC50 was more than 50 µM.

The compound `Cc1ccc(NC(=O)C(CCCCN)NC(=O)OCc2ccccc2)cc1` [Compound 403, (S)-(5-AMINO-1-P-TOLYLCARBAMOYL-PENTYL)-CARBAMIC ACID BENZYL ESTER] came in with an IC50 of more than 50 µM.

The test system of another test is Huh-7 cells, genotype 1b HCV replicon. The experiment in a line: Inhibition of HCV replication in cell culture, genotype 1b replicon. The format is cell-based, hepatitis C virus. The note with it: Hepatitis C virus, Huh-7, 24 h, Huh-7, genotype 1b replicon; intracellular HCV RNA 24 h after 3 daily doses; read-out: EC50. As to the method: Test compounds were solubilized at 30 mM in 100% tissue culture grade DMSO (Sigma, Inc.). Aliquots of test compounds sufficient for one daily treatment were made in individual tubes and all material was stored at −20° C. On each day of treatment, daily aliquots of the test compounds were suspended in culture medium at room temperature and immediately added to the cell cultures. Compounds were added to dividing cultures once daily for three days at concentrations ranging from about 30 μM to about 0.0003 μM. Media was changed with each addition of compound. The assays were started when cell cultures were at about 30-50% confluence, and the cells reached confluence during the last day of treatment. The assays included untreated control cultures (six total), and triplicate cultures treated with α-interferon and ribavirin as positive antiviral and toxicity controls.
Intracellular HCV RNA levels and cytotoxicity were assessed in triplicate 24 hours after the last compound dose.
(In general: Replicon systems follow genome replication, usually without infectious particles.)
For the compound `NCCCC[C@H](NC(=O)Nc1ccc(-c2ccccc2)cc1)C(=O)Nc1ccc(CN(C(=O)c2ccco2)C2CCCCC2)cc1` [Compound 26, (S)-FURAN-2-CARBOXYLIC ACID {4-[6-AMINO-2-(3-BIPHENYL-4-YL-UREIDO)-HEXANOYLAMINO]-BENZYL}-CYCLOHEXYL-AMIDE], the EC50 was more than 2 µM.

The same test, now with this note: genotype 1b replicon; CC50 by neutral red uptake.
Regarding `NCCCC[C@H](NC(=O)Nc1ccc(-c2ccccc2)cc1)C(=O)Nc1ccc(CN(C(=O)c2ccco2)C2CCCCC2)cc1` [Compound 26, (S)-FURAN-2-CARBOXYLIC ACID {4-[6-AMINO-2-(3-BIPHENYL-4-YL-UREIDO)-HEXANOYLAMINO]-BENZYL}-CYCLOHEXYL-AMIDE], the “Selectivity Index (CC50/EC50)” value was less than 20.

As a reminder, the IC50 is the concentration needed to halve the response being measured. As usually defined, the EC50 is the concentration that produces a half-maximal response.
